The record followed here is ChEMBL document CHEMBL5614402, “Discovery of novel pyrazolo[1,5-a]pyrimidine derivatives as potent reversal agents against ABCB1-mediated multidrug resistance” (Eur J Med Chem, 2024).

Calls of active or inactive are those of the source. The calls are words filed in the database; no cut-off is given here. A value given as a limit tells only on which side of the number the result lay.

The subject of experiment [1] is NCI/ADR-RES. Nature of the experiment: Induction of apoptosis in human MCF7ADR cells assessed as necrotic cells at 10 nM by Annexin V-FITC and propidium iodide staining based flow cytometry analysis (reference value: 3.14%). Format: functional. For orientation: In flow cytometry, cells or beads pass a laser one at a time.
For another experiment, the target named is Tubulin (Homo sapiens) (UniProt P68371+Q9H4B7+P0DPH7+P68366+Q13509+Q71U36+P04350+Q3ZCM7+P07437+P68363+Q9BQE3+Q6PEY2+Q13885+Q9BVA1+Q9BUF5). Put plainly: Inhibition of tubulin depolymerization in human MCF7ADR cells assessed as change in microtubule morphology at 10 nM incubated for 72 hrs. Type of experiment: cell-based.
The test system of experiment [2] is NCI/ADR-RES. Put plainly: Induction of apoptosis in human MCF7ADR cells assessed as viable cells at 10 nM by Annexin V-FITC and propidium iodide staining based flow cytometry analysis (reference value: 85.75%). Type of experiment: functional. The following applies: read-out: Activity.
Experiment [3] deals with NCI/ADR-RES. Nature of the experiment: Induction of apoptosis in human MCF7ADR cells assessed as early apoptotic cells at 10 nM by Annexin V-FITC and propidium iodide staining based flow cytometry analysis (reference value: 3.87%). Type of experiment: functional.
The test system of experiment [4] is NCI/ADR-RES. Nature of the experiment: Induction of apoptosis in human MCF7ADR cells assessed as late apoptotic cells at 10 nM by Annexin V-FITC and propidium iodide staining based flow cytometry analysis (reference value: 7.24%). Type of experiment: functional.
Experiment [5] relates to MCF7. Put plainly: Antiproliferative activity against human MCF7 cells assessed as survival rate at 5 uM incubated for 72 hrs by MTT assay. Type of experiment: functional. Particulars: read-out: Survival. In general terms: Tetrazolium assays rely on reduction of a dye to a coloured formazan, in cell work by metabolically active cells.
In experiment [6] the test system is NCI/ADR-RES. Nature of the experiment: Reversal of paclitaxel resistance in human MCF7ADR cells assessed as reversal fold by measuring ratio of paclitaxel IC50 to paclitaxel IC50 in presence of test compound at 5 uM incubated for 72 hrs by MTT assay. Format: functional.
In experiment [7] the test system is NCI/ADR-RES. Put plainly: Antiproliferative activity against human MCF7ADR cells assessed as survival rate at 5 uM incubated for 72 hrs by MTT assay. Type of experiment: functional. Particulars: read-out: Survival.
The subject of experiment [8] is NCI/ADR-RES. Put plainly: Antiproliferative activity against human MCF7ADR cells incubated for 72 hrs by MTT assay. Format: functional, cell-based.
Experiment [9] concerns MCF7. Nature of the experiment: Antiproliferative activity against human MCF7 cells incubated for 72 hrs by MTT assay. Type of experiment: functional, cell-based. The following applies: MCF7, 72 h.
The test system of experiment [10] is NCI/ADR-RES. Put plainly: Reversal of paclitaxel resistance in human MCF7ADR cells assessed as reduction in paclitaxel IC50 at 5 uM pretreated with compound for 4 hrs followed by paclitaxel addition and measured after 72 hrs by MTT assay (reference value: 6.68 +/- 0.35 microM). Type of experiment: functional, cell-based.
Experiment [11] concerns NCI/ADR-RES. Nature of the experiment: Reversal of paclitaxel resistance in human MCF7ADR cells assessed as reversal fold by measuring ratio of paclitaxel IC50 to paclitaxel IC50 in presence of test compound at 10 uM incubated for 72 hrs by MTT assay. Format: functional.
Experiment [12] relates to MCF7. Nature of the experiment: Reversal of paclitaxel resistance in human MCF7 cells assessed as reduction in paclitaxel IC50 at 10 uM pretreated with compound for 4 hrs followed by paclitaxel addition and measured after 72 hrs by MTT assay (reference value: 2.60 +/- 0.36 nM). Format: functional, cell-based.
Experiment [13] concerns MCF7. Put plainly: Reversal of paclitaxel resistance in human MCF7 cells assessed as reduction in paclitaxel IC50 at 5 uM pretreated with compound for 4 hrs followed by paclitaxel addition and measured after 72 hrs by MTT assay (reference value: 2.60 +/- 0.36 nM). Type of experiment: functional, cell-based.
For experiment [14], the system named is MCF7. Put plainly: Reversal of paclitaxel resistance in human MCF7 cells assessed as reversal fold by measuring ratio of paclitaxel IC50 to paclitaxel IC50 in presence of test compound at 10 uM incubated for 72 hrs by MTT assay. Format: functional.
Experiment [15] deals with NCI/ADR-RES. Nature of the experiment: Reversal of paclitaxel resistance in human MCF7ADR cells assessed as reduction in paclitaxel IC50 at 10 uM pretreated with compound for 4 hrs followed by paclitaxel addition and measured after 72 hrs by MTT assay (reference value: 6.68 +/- 0.35 microM). Format: functional, cell-based.
Experiment [16] deals with MCF7. Nature of the experiment: Reversal of paclitaxel resistance in human MCF7 cells assessed as reversal fold by measuring ratio of paclitaxel IC50 to paclitaxel IC50 in presence of test compound at 5 uM incubated for 72 hrs by MTT assay. Format: functional.

`CC(=O)O[C@H]1C(=O)[C@@]2(C)[C@H]([C@H](OC(=O)c3ccccc3)[C@]3(O)C[C@H](OC(=O)[C@H](O)[C@@H](NC(=O)c4ccccc4)c4ccccc4)C(C)=C1C3(C)C)[C@]1(OC(C)=O)CO[C@@H]1C[C@@H]2O` [PACLITAXEL]: the Activity in the experiment on NCI/ADR-RES [1] worked out at 2.4%; in the experiment on NCI/ADR-RES [3], 4.93%; in the experiment with NCI/ADR-RES [4], 6.48%. Besides, the inhibition entry on Tubulin (Homo sapiens) is “inactive”. In addition, in the experiment with NCI/ADR-RES [2], the viability at 0.01 µM was 86.2%.
As usually defined, the IC50 is the point on the concentration scale where inhibition reaches its midpoint. In the case of `COc1cc(-c2c(-c3ccc(Br)cc3)c(C)nc3cc(-c4cccs4)nn23)cc(OC)c1OC`, the viability at 5 µM in the experiment on MCF7 [5] came out at 94.8%; in the experiment on NCI/ADR-RES [7] it was 94.2%. In the experiment on NCI/ADR-RES [6], the Ratio is 139.16. Besides, the IC50 in the experiment on NCI/ADR-RES [8] was over 20 µM; with MCF7 [9], 14.4 µM; with NCI/ADR-RES [10] it was 0.048 µM.
On to `CCc1cc2nc(C)c(-c3ccc(OC)cc3)c(-c3cc(OC)c(OC)c(OC)c3)n2n1`, for which the viability at 5 µM in the experiment with MCF7 [5] and with NCI/ADR-RES [7] was over 99% throughout. The Ratio in the experiment with NCI/ADR-RES [6] turned out to be 27.83. Moreover, the IC50 with NCI/ADR-RES [8] is over 20 µM; in the experiment on MCF7 [9], over 20 µM; in the experiment with NCI/ADR-RES [10], 0.24 µM.
`COc1ccc(-c2c(C)nc3ccnn3c2-c2cc(OC)c(OC)c(OC)c2)cc1OC`: the viability at 5 µM with MCF7 [5] and in the experiment on NCI/ADR-RES [7] was over 99% in each case. In the experiment on NCI/ADR-RES [6], the Ratio is listed as 2.84. For the same molecule, the IC50 was over 20 µM with NCI/ADR-RES [8], over 20 µM in the experiment on MCF7 [9] and 2.35 µM in the experiment with NCI/ADR-RES [10].
Regarding `COc1ccc(-c2c(C)nc3cc(-c4cccs4)nn3c2-c2cc(OC)c(OC)c(OC)c2)cc1`, the viability at 5 µM is 93.6% in the experiment on MCF7 [5] and 85.1% in the experiment with NCI/ADR-RES [7]. Further, the Ratio in the experiment with NCI/ADR-RES [6] is 136.32. In addition, the IC50 was over 20 µM with NCI/ADR-RES [8], over 20 µM with MCF7 [9] and 0.049 µM in the experiment with NCI/ADR-RES [10].
In the case of `COc1ccc(-c2c(C)nc3cc(Br)nn3c2-c2cc(OC)c(OC)c(OC)c2)cc1`, the viability at 5 µM in the experiment on MCF7 [5] worked out at 95.4%; with NCI/ADR-RES [7] it was 91.2%. Further, the Ratio in the experiment with NCI/ADR-RES [6] was 4.77. For the same molecule, the IC50 is over 20 µM in the experiment with NCI/ADR-RES [8], over 20 µM with MCF7 [9] and 1.4 µM with NCI/ADR-RES [10].
Regarding `COc1ccc(-c2c(C)nc3cc(C)nn3c2-c2cc(OC)c(OC)c(OC)c2)cc1`, the viability at 5 µM in the experiment with MCF7 [5] was over 99%; in the experiment with NCI/ADR-RES [7], 95.2%. Also, in the experiment on NCI/ADR-RES [6], the Ratio is listed as 8.14. The IC50 is over 20 µM with NCI/ADR-RES [8], over 20 µM in the experiment with MCF7 [9] and 0.82 µM in the experiment with NCI/ADR-RES [10].
For `COc1ccc(-c2c(C)nc3cc(C#N)nn3c2-c2cc(OC)c(OC)c(OC)c2)cc1`, the viability at 5 µM in the experiment on MCF7 [5] turned out to be 93.9%; with NCI/ADR-RES [7] it was 90.6%. Also, the Ratio in the experiment with NCI/ADR-RES [6] worked out at 10.77. The IC50 in the experiment with NCI/ADR-RES [8] was over 20 µM; in the experiment on MCF7 [9], over 20 µM; in the experiment on NCI/ADR-RES [10], 0.62 µM.
`COc1ccc(-c2c(C)nc3cc(-c4ccccc4)nn3c2-c2cc(OC)c(OC)c(OC)c2)cc1`: the viability at 5 µM in the experiment with MCF7 [5] is 90.2%; with NCI/ADR-RES [7], 89.2%. For the same molecule, in the experiment on NCI/ADR-RES [6], the Ratio amounted to 151.81. Also, the values for the IC50 with NCI/ADR-RES [8], in the experiment on MCF7 [9] and with NCI/ADR-RES [10] were over 20 µM, 7.94 µM and 0.048 µM, respectively.
Turning to `COc1ccc(CCN(C)CCCC(C#N)(c2ccc(OC)c(OC)c2)C(C)C)cc1OC` (stereo unspecified) [VERAPAMIL], the Ratio was 96.11 in the experiment with NCI/ADR-RES [11], 39.29 in the experiment on NCI/ADR-RES [6], 0.97 in the experiment on MCF7 [14] and 2.55 in the experiment with MCF7 [16]. Further, the viability at 5 µM in the experiment with MCF7 [5] and with NCI/ADR-RES [7] was over 99% in each case. The IC50 in the experiment on MCF7 [12] is 0.00268 µM; in the experiment on MCF7 [13] it was 0.00102 µM; in the experiment on NCI/ADR-RES [8], over 20 µM; with MCF7 [9] it was over 20 µM; with NCI/ADR-RES [15] it was 0.0695 µM; in the experiment with NCI/ADR-RES [10] it was 0.17 µM.
Turning to `COc1ccc(-c2c(C)nc3cc(-c4ccco4)nn3c2-c2cc(OC)c(OC)c(OC)c2)cc1`, the viability at 5 µM with MCF7 [5] worked out at 90.8%; with NCI/ADR-RES [7], 93.1%. For the same molecule, the Ratio in the experiment with NCI/ADR-RES [6] is 66.8. The IC50 was over 20 µM with NCI/ADR-RES [8], 9.53 µM in the experiment with MCF7 [9] and 0.1 µM in the experiment on NCI/ADR-RES [10].
Consider `COc1ccc(-c2c(C)nc3cc(-c4ccco4)nn3c2-c2cc(OC)c(OC)c(OC)c2)cc1OC`, for which the viability at 5 µM in the experiment with MCF7 [5] turned out to be 92.4%; in the experiment with NCI/ADR-RES [7], 97.1%. For the same molecule, the Ratio with NCI/ADR-RES [6] turned out to be 76.78. Also, the IC50 with NCI/ADR-RES [8] is over 20 µM; in the experiment with MCF7 [9], over 20 µM; with NCI/ADR-RES [10], 0.087 µM.
Regarding `COc1cc(-c2c(-c3ccc(Cl)cc3)c(C)nc3cc(-c4ccccc4)nn23)cc(OC)c1OC`, the figures for the viability at 5 µM with MCF7 [5] and in the experiment with NCI/ADR-RES [7] were 94.2% and 90.3%, respectively. In addition, in the experiment with NCI/ADR-RES [6], the Ratio came to 90.27. Besides, the IC50 in the experiment on NCI/ADR-RES [8] is over 20 µM; in the experiment on MCF7 [9] it was over 20 µM; in the experiment on NCI/ADR-RES [10], 0.074 µM.
With `COc1ccc(-c2c(C)nc3ccnn3c2-c2cc(OC)c(OC)c(OC)c2)cc1`, the viability at 5 µM in the experiment with MCF7 [5] and in the experiment with NCI/ADR-RES [7] was over 99% in each case. Moreover, the Ratio with NCI/ADR-RES [6] is on record as 2.14. Also, the figures for the half-maximal inhibitory concentration (IC50) with NCI/ADR-RES [8], in the experiment on MCF7 [9] and with NCI/ADR-RES [10] were over 20 µM, over 20 µM and 3.12 µM, respectively.
Turning to `COc1cc(-c2c(C)nc3cc(-c4ccccc4)nn3c2-c2cc(OC)c(OC)c(OC)c2)cc(OC)c1OC`, the viability at 5 µM in the experiment on MCF7 [5] was 96.2%; in the experiment on NCI/ADR-RES [7], 93.5%. Moreover, the Ratio with NCI/ADR-RES [6] was 222.66. Moreover, the IC50 is over 20 µM in the experiment with NCI/ADR-RES [8], over 20 µM in the experiment on MCF7 [9] and 0.03 µM with NCI/ADR-RES [10].
Take `COc1ccc(-c2c(C)nc3cc(-c4ccccc4)nn3c2-c2cc(OC)c(OC)c(OC)c2)cc1OC`: the values for the viability at 5 µM in the experiment with MCF7 [5] and with NCI/ADR-RES [7] were 92.7% and 89.2%, respectively. In addition, the Ratio in the experiment on NCI/ADR-RES [6] was 139.16. Also, the IC50 with NCI/ADR-RES [8] is over 20 µM; in the experiment on MCF7 [9] it was over 20 µM; in the experiment on NCI/ADR-RES [10], 0.048 µM.
